Article PMC8037142, “Design, Synthesis, Molecular Modeling and Antitumor Evaluation of Novel Indolyl-Pyrimidine Derivatives with EGFR Inhibitory Activity” (Molecules, 2021)
Like-named read-outs stand apart in the source and are kept apart here. Blank lines part the entries; values can stand above or below the compound they belong to.

How the values were obtained:
[1] = test system: HCT-116 colon cancer cell line; test: Resazurin Cell Growth Inhibition Assay, HCT-116; type: cell-based, human; conditions: HCT-116, 48 h, mean ± SD of three experiments, read-out: Cytotoxic Activity IC50
Method: (§1) Compounds 1–4 were assessed for their in vitro cytotoxic activity against three human cell lines i.e., breast (MCF-7), liver (HepG2), colon (HCT-116) cancer cell lines as well as in lung fibroblast (WI38) normal cell line using the Resazurin Cell Growth Inhibition Assay. Both erlotinib and 5-Fluorouracil (5-FU) were used as reference drugs. Concentrations of the tested compounds that give about 50% inhibition of cell viability (IC50, mean of triplicate) in µM were obtained. […] However, if replaced by a hydrazone substituent, a more prominent efficacy toward the three cancer cell lines was observed. […] The most promising in vitro antiproliferative activity was obtained when the hydrazone is bearing electron-withdrawal groups i.e., 4-chlorobenzylidene moiety (compound 3f), 3,4-dichloro benzylidene moiety (compound 3g) and 4-fluorobenzylidene moiety (compound 3h) compared to the standard treatment (Table 1, Figure 5). The inhibitory activity of compounds was reduced when the hydrazone group is bearing electron donating groups i.e., 4-methyl group (compound 3b), 2-methoxy group (compound 3c), 4-hydroxy (compound 3d) and 4-dimethylamino group (compound 3e). The trend of antiproliferative activity of compounds […] against all tested cell lines has the following descending order: (3g > 3h >3f >3a >3b > 3c > 3d > 3e). […]. […] This is mainly because this compound has the highest lipophilicity as well as less electron density as it has 2-Cl atoms (more electronegativity) on the indolyl pyrimidine-thiazolidinone.
(§2) In vitro cytotoxicity was measured according to the Resazurin Cell Growth Inhibition Assay Alamar Blue or Resazurin (Promega, Mannheim, Germany) reduction assay was used to assess the cytotoxicity of the studied samples. The assay tests cellular viability and mitochondrial function. Briefly, adherent cells were grown in tissue culture flasks, and then harvested by treating the flasks with 0.025% trypsin and 0.25 mM EDTA for 5 min. Once detached, cells were washed, counted, and an aliquot (5 × 10^3 cells) were placed in each well of a 96-well cell culture plate in a total volume of […]. Cells were allowed to attach overnight and then treated with samples. […]. Each assay was performed as triplicates. […] […]. The viability was compared based on a comparison with untreated cells. IC50 (on cancer cells) were the concentration of sample required to inhibit 50% of the cell proliferation and were calculated from a calibration curve by a linear regression using Microsoft Excel.

[2] = test system: HepG2 liver cancer cell line; test: Resazurin Cell Growth Inhibition Assay, HepG2; type: cell-based, human; conditions: HepG2, 48 h, mean ± SD of three experiments, read-out: Cytotoxic Activity IC50
Method: as §1, §2

[3] = test system: MCF-7, HepG2 and HCT-116 cancer cell lines; test: Resazurin assay, range over the three cancer cell lines; type: cell-based; conditions: Homo sapiens; range over MCF-7, HepG2 and HCT-116; read-out: IC50 range against the cancer cell lines
Method: Compounds 1–4 were assessed for their in vitro cytotoxic activity against three human cell lines i.e., breast (MCF-7), liver (HepG2), colon (HCT-116) cancer cell lines as well as in lung fibroblast (WI38) normal cell line using the Resazurin Cell Growth Inhibition Assay. Both erlotinib and 5-Fluorouracil (5-FU) were used as reference drugs. Concentrations of the tested compounds that give about 50% inhibition of cell viability (IC50, mean of triplicate) in µM were obtained. […] However, if replaced by a hydrazone substituent, a more prominent efficacy toward the three cancer cell lines was observed. […] The most promising in vitro antiproliferative activity was obtained when the hydrazone is bearing electron-withdrawal groups i.e., 4-chlorobenzylidene moiety (compound 3f), 3,4-dichloro benzylidene moiety (compound 3g) and 4-fluorobenzylidene moiety (compound 3h) compared to the standard treatment (Table 1, Figure 5). […]
In vitro cytotoxicity was measured according to the Resazurin Cell Growth Inhibition Assay Alamar Blue or Resazurin (Promega, Mannheim, Germany) reduction assay was used to assess the cytotoxicity of the studied samples. […] Once detached, cells were washed, counted, and an aliquot (5 × 10^3 cells) were placed in each well of a 96-well cell culture plate in a total volume of 100 mL. […]

[4] = Resazurin Cell Growth Inhibition Assay, WI38 normal cells; type: cell-based; conditions: human, WI38 normal lung fibroblast cells, WI-38 normal cells, mean ± SD of three experiments, read-out: Cytotoxic Activity IC50
Method: as §1, §2

[5] = test system: MCF-7 breast cancer cell line; test: Resazurin Cell Growth Inhibition Assay, MCF-7; type: cell-based; conditions: Homo sapiens, MCF7; MCF-7, 48 h, mean ± SD of three experiments; read-out: Cytotoxic Activity IC50
Method: as §1, §2

EGFR kinase = EGFR kinase (Homo sapiens, UniProt P00533); test: In vitro EGFR inhibitory assay (EnzyChrom Kinase Assay Kit EKIN-400); conditions: for inhibition at 10 µM: read-out: % Inhibition of EGFR
Method: A first-generation EGFR inhibitor, erlotinib, was used as standard treatment. […] IC50 for these compounds was determined. […] In addition, 20 µL reaction mixture containing the EGFR kinase, ATP, and substrate in the provided assay buffer. Set up a blank control that contains ATP and substrate but no enzyme. Incubate at desired temperature for 30 min. Prepare 900 µL 10µM (adenosine diphosphate) ADP premix by mixing 3 µL of 3 mM standard and 897 µL distilled water. Transfer 20 µL standards into separate wells of the plate. Prepare enough working reagent for each well. Add 40 µL working reagent to each assay well. Tap plate to mix. Incubate at room temperature for 10 min. Read fluorescence intensity at λexc = 530nm and λem = 590 nm, and then calculate kinase activity.

[6] = test system: Ehrlich ascites carcinoma (EAC); test: In vivo antitumor assay in EAC tumor bearing mice; conditions: 0.5 mg/mouse for nine days; for Tumor Volume: ascitic fluid; for MST (mean survival time): mean of two experiments; for Viable Tumor Cell Count: trypan blue
Method: The antitumor activity of these compounds was assessed by the change in tumor volume, viable cell count, mean survival time (MST) and % increase in lifespan (% ILS) of the EAC tumor bearing mice and 5-FU (standard treatment). The mean survival time (MST) and % increase in lifespan (% ILS) of EAC tumor bearing mice, as well as the influence of these compounds on viable tumor cells and the tumor volume, are shown in Table 2. The hematological profile of these mice was also assessed in comparison with the standard treatment with 5-FU, and no obvious effect on RBCs or WBCs was observed. […] MST = (day of first death + day of last death)/2 %ILS = [(MST of treated group/MST of control group) − 1] × 100 […]
In vivo antitumor evaluation was carried out as previously reported (see Supplementary Materials).
2. Biological Evaluation Details: a) In vivo antitumor assay: Materials . Adult Swiss male mice (weighing 20 -25 g) were obtained from the Department of Pharmacology, Faculty of Pharmacy, Mansoura University, Egypt.
They were kept in microlon boxes at temperature 25 ± 2 °C with a regular 12 hrs light/dark cycle. In addition, food and water were available. EAC cells (procured from NCI, Cairo, Egypt) were harvested and prepared, then their total number was counted.
Procedure. 7 Groups of mice ( n = 4) were used.
Group 1: Negative control (no EAC cells) - received normal saline.
Group 2: Positive control (EAC cells) - received normal saline.
Group 3: EAC cells - treated with compound 3g (0.5 mg/mouse).
Group 4: EAC cells - treated with compound 4f (0.5 mg/mouse).
Group 5: EAC cells - treated with compound 4g (0.5 mg/mouse).
Group 6: EAC cells - treated with compound 4h (0.5 mg/mouse).
Group 7: EAC cells - treated with 5-fluorouracil (0.5 mg/mouse).
2 x 10^6 EAC cells were injected intraperitoneally in each mouse (groups 2-7). After […]
for nine days, then blood samples were withdrawn for assessment of blood count.
Determination of tumor volume
The ascetic fluid was gathered from the peritoneal cavity and its volume was determined. It was then centrifuged, and the packed tumor cell volume was measured.
Determination of viable tumor cell count
100 μL Sample of EAC cells (from three mice per group) was utilized and diluted twenty times with saline. Cells were stained with trypan blue, viable cells are not stained, while the dead ones are stained. The number of viable cells was calculated.

EGFR kinase, sequence (P00533 25-1210): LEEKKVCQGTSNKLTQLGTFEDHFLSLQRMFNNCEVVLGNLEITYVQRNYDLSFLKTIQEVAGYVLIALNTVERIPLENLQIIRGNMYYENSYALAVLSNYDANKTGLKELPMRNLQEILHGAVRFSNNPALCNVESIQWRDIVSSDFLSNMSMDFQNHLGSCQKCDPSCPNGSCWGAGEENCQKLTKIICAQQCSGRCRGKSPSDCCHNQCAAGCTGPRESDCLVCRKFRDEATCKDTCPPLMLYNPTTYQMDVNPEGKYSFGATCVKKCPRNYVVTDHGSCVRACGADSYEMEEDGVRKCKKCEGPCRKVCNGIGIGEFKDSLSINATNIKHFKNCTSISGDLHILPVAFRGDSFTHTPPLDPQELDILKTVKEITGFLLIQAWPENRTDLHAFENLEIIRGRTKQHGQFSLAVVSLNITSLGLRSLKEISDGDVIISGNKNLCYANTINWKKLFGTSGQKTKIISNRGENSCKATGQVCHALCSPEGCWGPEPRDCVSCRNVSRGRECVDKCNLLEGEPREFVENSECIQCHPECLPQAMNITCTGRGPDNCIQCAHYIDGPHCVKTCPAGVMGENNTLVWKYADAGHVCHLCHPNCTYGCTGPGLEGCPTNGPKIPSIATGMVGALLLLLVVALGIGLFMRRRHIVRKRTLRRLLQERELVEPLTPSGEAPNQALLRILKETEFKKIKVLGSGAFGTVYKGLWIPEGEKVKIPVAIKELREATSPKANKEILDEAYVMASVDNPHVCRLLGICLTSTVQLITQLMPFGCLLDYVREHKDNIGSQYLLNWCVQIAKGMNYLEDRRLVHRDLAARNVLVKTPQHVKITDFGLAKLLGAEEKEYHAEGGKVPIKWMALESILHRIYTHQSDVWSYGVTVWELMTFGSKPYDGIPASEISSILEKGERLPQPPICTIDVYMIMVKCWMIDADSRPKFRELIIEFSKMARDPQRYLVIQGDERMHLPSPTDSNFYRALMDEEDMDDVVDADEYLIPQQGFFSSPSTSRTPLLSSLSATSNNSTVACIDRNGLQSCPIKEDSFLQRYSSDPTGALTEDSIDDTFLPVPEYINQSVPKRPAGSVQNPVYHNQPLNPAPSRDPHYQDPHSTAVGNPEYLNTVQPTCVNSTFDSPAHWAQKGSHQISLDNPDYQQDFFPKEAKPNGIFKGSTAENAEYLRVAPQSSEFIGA

melting point: 245 to 247 °C
IC50 [3]: 26.8 to 28.2 µM
SMILES: CCOC(=O)C1=C(C)NC(=S)NC1c1c[nH]c2ccccc12 (stereo not shown) [Compound 1, Ethyl 4-(1H-indol-3-yl)-6-methyl-2-thioxo-1,2,3,4-tetrahydropyrimidine-5-Carboxylate]
IC50 ([1]; Homo sapiens): 27.2 ± 1.11 µM
IC50 ([2]; Homo sapiens): 28.8 ± 2.25 µM
IC50 at 48 h [4]: 30 ± 1.2 µM
IC50 [5]: 26.8 ± 2.2 µM

melting point: 208 to 210 °C
IC50 [3]: 21.6 to 25.5 µM
SMILES: CC1=C(C(=O)NN)C(c2c[nH]c3ccccc23)NC(=S)N1 (stereo not shown) [Compound 2, 4-(1H-indol-3-yl)-6-methyl-2-thioxo-1,2,3,4-tetrahydropyrimidine-5-carbohydrazide]
IC50 ([1]; Homo sapiens): 22.2 ± 1.5 µM
IC50 ([2]; Homo sapiens): 25.5 ± 2.17 µM
IC50 at 48 h [4]: 40.5 ± 2.25 µM
IC50 [5]: 21.6 ± 1.8 µM

SMILES: CC1=C(C(=O)NN2C(=O)CSC2c2ccc(Cl)c(Cl)c2)C(c2c[nH]c3ccccc23)NC(=S)N1 (stereo not shown) [Compound 4g, N-(2-(3,4-dichlorophenyl)-4-oxothiazolidin-3-yl)-4-(1H-indol-3-yl)-6-methyl-2-thioxo-1,2,3,4-tetrahydropyrimidine-5-carboxamide]
inhibition at 10 µM (EGFR kinase): 79%
Tumor Volume [6]: 0.89 mL
MST (mean survival time) [6]: 46 days
Viable Tumor Cell Count [6]: 21.70 10^6/mL
IC50 [1]: 5.02 ± 1.19 µM
IC50 ([1]; Homo sapiens): 6.6 µM
IC50 [2]: 6.6 ± 1.4 µM
IC50 ([2]; Homo sapiens): 5.02 µM
IC50 at 48 h [4]: 16.3 ± 3.21 µM
IC50 [5]: 5.1 ± 1.14 µM

SMILES: CC1=C(C(=O)NN2C(=O)CSC2c2ccc(F)cc2)C(c2c[nH]c3ccccc23)NC(=S)N1 (stereo not shown) [Compound 4h, N-(2-(4-fluorophenyl)-4-oxothiazolidin-3-yl)-4-(1H-indol-3-yl)-6-methyl-2-thioxo-1,2,3,4-tetrahydropyrimidine-5-carboxamide]
IC50 (EGFR kinase): 0.39 ± 0.02 µM
inhibition at 10 µM (EGFR kinase): 70%
Tumor Volume [6]: 1.18 mL
MST (mean survival time) [6]: 40 days
Viable Tumor Cell Count [6]: 28.50 10^6/mL
IC50 ([1]; Homo sapiens): 7.02 ± 0.46 µM
IC50 ([2]; Homo sapiens): 7.5 ± 1.29 µM
IC50 at 48 h [4]: 18.1 ± 2.06 µM
IC50 [5]: 6.6 ± 1.28 µM
